This is an account of results in US12723063B2, “GIPR-agonist compounds” (Eli Lilly and Company, priority 2019, dated 2026).

The target in assay [1] is T1, human GcgR (Homo sapiens, UniProt P47871).
T1 construct: expressed in transfected cells; crude membranes
In words: [125I]-Glucagon binding, SPA with WGA beads, 0.1% bacitracin. The note with it: geometric mean, read-out: hGcgR Ki. The method, then: Stably transfected cell lines are prepared by subcloning receptor cDNA into a pcDNA3 expression plasmid and transfected into human embryonic kidney (HEK) 293 (hGcgR and hGLP-1R) or Chinese Hamster Ovary (CHO) (hGIPR) cells followed by selection with Geneticin (hGLP-1R and hGIPR) or hygromycin B (hGcgR).
Two methods are used for the preparation of crude cell membranes.
Method 1: Frozen cell pellets are lysed on ice in hypotonic buffer containing 50 mM Tris HCl, pH 7.5, and Roche Complete™ Protease Inhibitors with EDTA. The cell suspension is disrupted using a glass Potter-Elvehjem homogenizer fitted with a Teflon® pestle for 25 strokes. The homogenate is centrifuged at 4° C. at 1100× g for 10 minutes. The supernatant is collected and stored on ice while the pellets are resuspended in homogenization buffer and rehomogenized as described above. The homogenate is centrifuged at 1100× g for 10 minutes. The second supernatant is combined with the first supernatant and centrifuged at 35000× g for 1 hour at 4° C. The resulting membrane pellet is resuspended in homogenization buffer containing protease inhibitors at approximately 1 to 3 mg/mL, quick frozen in liquid nitrogen and stored as aliquots in a −80° C. freezer until use.
Method 2: Frozen cell pellets are lysed on ice in hypotonic buffer containing 50 mM Tris HCl, pH 7.5, 1 mM MgCl2, Roche Complete™ EDTA-free Protease Inhibitors and 25 units/mL DNAse I (Invitrogen). The cell suspension is disrupted using a glass Potter-Elvehjem homogenizer fitted with a Teflon® pestle for 20 to 25 strokes. The homogenate is centrifuged at 4° C. at 1800× g for 15 minutes. The supernatant is collected and stored on ice while the pellets are resuspended in homogenization buffer (without DNAse I) and rehomogenized as described above. The homogenate is centrifuged at 1800× g for 15 minutes. The second supernatant is combined with the first supernatant and centrifuged an additional time at 1800× g for 15 minutes. The overall supernatant is then centrifuged at 25000× g for 30 minutes at 4° C. The resulting membrane pellet is resuspended in homogenization buffer (without DNAse I) containing protease inhibitors at approximately 1 to 3 mg/mL and stored as aliquots in a −80° C. freezer until use.
The human Geg receptor binding assays are performed using a Scintillation Proximity Assay (SPA) format with wheat germ agglutinin (WGA) beads (Perkin Elmer). The binding buffer contains 25 mM 4-(2-hydroxyethyl)-1-piperazineethanesulfonic acid (HEPES), pH 7.4, 2.5 mM CaCl2), 1 mM MgCl2, 0.1% (w/v) bacitracin (Research Products), 0.003% (w/v) Polyoxyethylenesorbitan monolaurate (TWEEN®-20), and Roche Complete™ Protease Inhibitors without EDTA. Peptides and Gcg are thawed and 3-fold serially diluted in 100% DMSO (10 point concentration response curves). Next, 5 μL serially diluted compound or DMSO is transferred into Corning® 3632 clear bottom assay plates containing 45 μL assay binding buffer or unlabeled Gcg control (non-specific binding or NSB, at 1 μM final). […] Plates are sealed and mixed on a plate shaker (setting 6) for 1 minute and read with a PerkinElmer Trilux MicroBeta® scintillation counter after 12 hours of incubation/settling time at room temperature.
Data are analyzed using four-parameter (curve maximum, curve minimum, IC50, Hill slope) nonlinear regression routines (Genedata Screener, version 12.0.4, Genedata AG, Basal, Switzerland). […] Values for Ki are reported as the geometric mean, with error expressed as the standard error of the mean (SEM) and n is equal to the number of independent replicates (determined in assays performed on different days). […] SEM is only calculated when […] or greater. Means are expressed as geometric means with the standard error of the mean (SEM) and the number of replicates (n) indicated in parentheses.

The target of assay [2] is T2, human GIPR (Homo sapiens, UniProt P48546).
T2 construct: expressed in transfected cells; crude membranes
T2 sequence (P48546 22-466): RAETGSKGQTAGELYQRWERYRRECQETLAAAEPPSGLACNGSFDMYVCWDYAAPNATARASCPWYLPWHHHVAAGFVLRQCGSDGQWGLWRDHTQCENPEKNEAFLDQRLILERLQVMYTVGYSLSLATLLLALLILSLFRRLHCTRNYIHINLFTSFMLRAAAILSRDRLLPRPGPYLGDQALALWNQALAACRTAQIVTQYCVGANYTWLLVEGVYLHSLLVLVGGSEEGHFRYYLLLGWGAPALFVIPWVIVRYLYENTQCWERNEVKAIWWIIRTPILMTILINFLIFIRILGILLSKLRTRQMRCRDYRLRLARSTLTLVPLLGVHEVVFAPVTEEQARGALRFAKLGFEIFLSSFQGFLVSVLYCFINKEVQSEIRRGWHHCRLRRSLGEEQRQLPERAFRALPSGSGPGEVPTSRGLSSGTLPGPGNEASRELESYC
Nature of the assay: [125I]-GIP binding, SPA with WGA beads, 0.1% bacitracin. The conditions noted are these: geometric mean, read-out: hGIPR Ki. In short, it runs like this:
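Ki values are geometric means (SEM, n independent days), derived from four-parameter nonlinear regression of IC50. Membranes came from hGIPR-expressing CHO cells.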

The target of assay [3] is T3, human GLP-1R (Homo sapiens, UniProt P43220).
T3 construct: expressed in transfected cells; crude membranes
Nature of the assay: [125I]-GLP-1 binding, SPA with WGA beads, 0.1% bacitracin. The note with it: geometric mean, read-out: hGLP1R Ki. In short, it runs like this: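 Binding buffer was 25 mM HEPES pH 7.4 with 2.5 mM CaCl2, 1 mM MgCl2, 0.1% (w/v) bacitracin, 0.003% Tween-20 and EDTA-free protease inhibitors. Four-parameter regression gave IC50, converted to Ki (geometric mean, SEM, n independent days).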

*1 amine or outer side, *2 acyl side, *3 side chain or, on linkers, in order; H or OH if unused. Where a SMILES comes first, the peptide text is derived from it. Side-chain parts run from the residue outwards. [ ]: non-standard residue; d: D form. The star is where a group is joined. C20 diacid = O=C(O)CCCCCCCCCCCCCCCCCCC(=O)*; γGlu = O=C(O)[C@H](CCC(=O)[*:2])N[*:1]; 4Pal = N[C@@H](Cc1ccncc1)C(=O)O; αMeL = CC(C)C[C@](C)(N)C(=O)O; AEEA = NCCOCCOCC(=O)O; Aib = CC(C)(N)C(=O)O

Broadly, the Ki is the equilibrium dissociation constant of an inhibitor or competing ligand from its target.

T3 sequence (P43220 24-463): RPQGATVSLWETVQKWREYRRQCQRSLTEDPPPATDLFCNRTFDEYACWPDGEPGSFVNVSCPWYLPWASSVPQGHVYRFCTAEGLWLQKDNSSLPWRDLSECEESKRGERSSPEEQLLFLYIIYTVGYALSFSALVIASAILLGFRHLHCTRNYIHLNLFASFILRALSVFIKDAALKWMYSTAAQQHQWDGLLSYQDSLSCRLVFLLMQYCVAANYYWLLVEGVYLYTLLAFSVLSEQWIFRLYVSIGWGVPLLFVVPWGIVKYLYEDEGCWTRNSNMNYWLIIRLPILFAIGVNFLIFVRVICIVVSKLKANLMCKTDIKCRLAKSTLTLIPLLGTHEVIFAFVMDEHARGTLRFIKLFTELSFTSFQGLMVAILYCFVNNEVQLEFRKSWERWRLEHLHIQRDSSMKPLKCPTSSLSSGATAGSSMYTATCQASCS
T1 sequence (P47871 26-477): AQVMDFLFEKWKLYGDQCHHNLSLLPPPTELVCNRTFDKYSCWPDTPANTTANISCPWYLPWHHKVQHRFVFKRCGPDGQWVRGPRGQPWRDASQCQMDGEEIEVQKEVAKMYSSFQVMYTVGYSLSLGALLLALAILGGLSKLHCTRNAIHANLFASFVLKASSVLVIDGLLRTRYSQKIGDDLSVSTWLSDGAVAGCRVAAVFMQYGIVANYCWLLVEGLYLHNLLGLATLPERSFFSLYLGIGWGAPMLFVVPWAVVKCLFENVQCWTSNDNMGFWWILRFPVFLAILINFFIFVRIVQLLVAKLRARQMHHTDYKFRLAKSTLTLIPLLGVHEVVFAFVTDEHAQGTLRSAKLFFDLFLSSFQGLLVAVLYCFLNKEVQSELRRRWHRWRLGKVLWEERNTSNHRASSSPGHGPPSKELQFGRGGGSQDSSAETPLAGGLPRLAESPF

Regarding `CC[C@H](C)[C@H](NC(=O)[C@H](CO)NC(=O)[C@H](Cc1ccc(O)cc1)NC(=O)[C@H](CC(=O)O)NC(=O)[C@H](CO)NC(=O)[C@@H](NC(=O)[C@H](Cc1ccccc1)NC(=O)[C@@H](NC(=O)CNC(=O)[C@H](CCC(=O)O)NC(=O)[C@@H](C)NC(=O)[C@@H](N)Cc1ccc(O)cc1)[C@@H](C)O)[C@@H](C)CC)C(=O)N[C@@H](CC(C)C)C(=O)N[C@@H](CC(C)C)C(=O)N[C@@H](CC(=O)O)C(=O)N[C@@H](CCCCN)C(=O)N[C@@H](CCCCNC(=O)COCCOCCNC(=O)COCCOCCNC(=O)CC[C@H](NC(=O)CCCCCCCCCCCCCCCCCCC(=O)O)C(=O)O)C(=O)N[C@@H](Cc1c[nH]cn1)C(=O)N[C@@H](CCC(N)=O)C(=O)NC(C)(C)C(=O)N[C@@H](CC(=O)O)C(=O)N[C@@H](Cc1ccccc1)C(=O)N[C@H](C(=O)N[C@@H](CC(N)=O)C(=O)N[C@@H](Cc1c[nH]c2ccccc12)C(=O)N[C@@H](CC(C)C)C(=O)N[C@@H](CC(C)C)C(=O)N[C@@H](C)C(=O)N[C@@H](CCC(N)=O)C(=O)NCC(=O)N1CCC[C@H]1C(=O)N[C@@H](CO)C(=O)N[C@@H](CO)C(=O)NCC(=O)N[C@@H](C)C(=O)N1CCC[C@H]1C(=O)N1CCC[C@H]1C(=O)N1CCC[C@H]1C(=O)N[C@@H](CO)C(N)=O)C(C)C` [Example 9] (H-Y[dA]EGTFISDYSILLDKK([AEEA-AEEA-γGlu-C20 diacid])HQ[Aib]DFVNWLLAQGPSSGAPPPS-NH2), the Ki in assay [1] is more than 230 nM; in assay [2] it was 0.11 nM; in assay [3], 168 nM.

For the compound `CC[C@H](C)[C@H](NC(=O)[C@H](Cc1ccccc1)NC(=O)[C@@H](NC(=O)CNC(=O)[C@H](CCC(=O)O)NC(=O)C(C)(C)NC(=O)[C@@H](N)Cc1ccc(O)cc1)[C@@H](C)O)C(=O)N[C@@H](CO)C(=O)N[C@@H](CC(=O)O)C(=O)N[C@@H](Cc1ccc(O)cc1)C(=O)N[C@@H](CO)C(=O)N[C@H](C(=O)N[C@@](C)(CC(C)C)C(=O)N[C@@H](CC(C)C)C(=O)N[C@@H](CC(=O)O)C(=O)N[C@@H](CCCCN)C(=O)N[C@@H](CCCCNC(=O)COCCOCCNC(=O)COCCOCCNC(=O)CC[C@H](NC(=O)CCCCCCCCCCCCCCCCCCC(=O)O)C(=O)O)C(=O)N[C@@H](Cc1c[nH]cn1)C(=O)N[C@@H](CCC(N)=O)C(=O)NC(C)(C)C(=O)N[C@@H](CC(=O)O)C(=O)N[C@@H](Cc1ccccc1)C(=O)N[C@H](C(=O)N[C@@H](CCC(=O)O)C(=O)N[C@@H](Cc1ccncc1)C(=O)N[C@@H](CC(C)C)C(=O)N[C@@H](CC(C)C)C(=O)N[C@@H](C)C(=O)N[C@@H](C)C(=O)NCC(=O)N1CCC[C@H]1C(=O)N[C@@H](CO)C(=O)N[C@@H](CO)C(=O)NCC(=O)N[C@@H](C)C(=O)N1CCC[C@H]1C(=O)N1CCC[C@H]1C(=O)N1CCC[C@H]1C(=O)N[C@@H](CO)C(N)=O)C(C)C)[C@@H](C)CC` [Example 78], the results for the inhibition constant Ki in assay [1], in assay [2] and in assay [3] were 505 nM, 0.0236 nM and 394 nM, respectively.

Turning to `CC[C@H](C)[C@H](NC(=O)[C@H](CCCCN)NC(=O)[C@H](CC(=O)O)NC(=O)[C@H](CC(C)C)NC(=O)[C@](C)(CC(C)C)NC(=O)[C@@H](NC(=O)[C@H](CO)NC(=O)[C@H](Cc1ccc(O)cc1)NC(=O)[C@H](CC(=O)O)NC(=O)[C@H](CO)NC(=O)[C@@H](NC(=O)[C@H](Cc1ccccc1)NC(=O)[C@@H](NC(=O)CNC(=O)[C@H](CCC(=O)O)NC(=O)C(C)(C)NC(=O)[C@@H](N)Cc1ccc(O)cc1)[C@@H](C)O)[C@@H](C)CC)[C@@H](C)CC)C(=O)N[C@@H](Cc1c[nH]cn1)C(=O)N[C@@H](CCC(N)=O)C(=O)NC(C)(C)C(=O)N[C@@H](CC(=O)O)C(=O)N[C@@H](Cc1ccccc1)C(=O)N[C@H](C(=O)N[C@@H](CCC(=O)O)C(=O)N[C@@H](Cc1ccc(O)cc1)C(=O)N[C@@H](CCCCNC(=O)COCCOCCNC(=O)COCCOCCNC(=O)CC[C@H](NC(=O)CCCCCCCCCCCCCCCCCCC(=O)O)C(=O)O)C(=O)N[C@@H](CC(C)C)C(=O)N[C@@H](CCC(=O)O)C(=O)N[C@@H](CCC(N)=O)C(=O)NCC(=O)N1CCC[C@H]1C(=O)N[C@@H](CO)C(=O)N[C@@H](CO)C(=O)NCC(=O)N[C@@H](C)C(=O)N1CCC[C@H]1C(=O)N1CCC[C@H]1C(=O)N1CCC[C@H]1C(=O)N[C@@H](CO)C(N)=O)C(C)C` [Example 92] (H-Y[Aib]EGTFISDYSI[αMeL]LDKIHQ[Aib]DFVEYK([AEEA-AEEA-γGlu-C20 diacid])LEQGPSSGAPPPS-NH2), the results for the inhibition constant Ki in assay [1], in assay [2] and in assay [3] were more than 958 nM, 0.0331 nM and more than 902 nM, respectively.

With `CC[C@H](C)[C@H](NC(=O)[C@H](Cc1ccccc1)NC(=O)[C@@H](NC(=O)CNC(=O)[C@H](CCC(=O)O)NC(=O)C(C)(C)NC(=O)[C@@H](N)Cc1ccc(O)cc1)[C@@H](C)O)C(=O)N[C@@H](CO)C(=O)N[C@@H](CC(=O)O)C(=O)N[C@@H](Cc1ccc(O)cc1)C(=O)N[C@@H](CO)C(=O)N[C@H](C(=O)N[C@@](C)(CC(C)C)C(=O)N[C@@H](CC(C)C)C(=O)N[C@@H](CC(=O)O)C(=O)N[C@@H](CCC(=O)O)C(=O)N[C@@H](CCCCNC(=O)COCCOCCNC(=O)COCCOCCNC(=O)CC[C@H](NC(=O)CCCCCCCCCCCCCCCCCCC(=O)O)C(=O)O)C(=O)N[C@@H](Cc1c[nH]cn1)C(=O)N[C@@H](CCC(N)=O)C(=O)NC(C)(C)C(=O)N[C@@H](CC(=O)O)C(=O)N[C@@H](Cc1ccccc1)C(=O)N[C@H](C(=O)N[C@@H](CCC(=O)O)C(=O)N[C@@H](Cc1ccncc1)C(=O)N[C@@H](CC(C)C)C(=O)N[C@@H](CC(C)C)C(=O)N[C@@H](C)C(=O)N[C@H](C(=O)NCC(=O)N1CCC[C@H]1C(=O)N[C@@H](CO)C(=O)N[C@@H](CO)C(=O)NCC(=O)N[C@@H](C)C(=O)N1CCC[C@H]1C(=O)N1CCC[C@H]1C(=O)N1CCC[C@H]1C(=O)N[C@@H](CO)C(N)=O)[C@@H](C)O)C(C)C)[C@@H](C)CC` [Example 83] (H-Y[Aib]EGTFISDYSI[αMeL]LDEK([AEEA-AEEA-γGlu-C20 diacid])HQ[Aib]DFVE[4Pal]LLATGPSSGAPPPS-NH2), the values for the inhibitory constant (Ki) in assay [1], in assay [2] and in assay [3] were more than 958 nM, 0.116 nM and 452 nM, respectively.
